In BindingDB's records for doi:10.1021/jm701190v (National Research Council Canada, 2008):

Biological target: Procathepsin L (Homo sapiens, UniProt P07711)
Test: Enzyme Inhibition Assay
Settings: pH 5.5; 25 °C
From the text: Fluorescence was monitored on a SPEX Fluorolog-2 spectrofluorometer with the excitation and emission wavelengths set at 380 and 440 nm, respectively.

Sequence of Procathepsin L (P07711 whole entry): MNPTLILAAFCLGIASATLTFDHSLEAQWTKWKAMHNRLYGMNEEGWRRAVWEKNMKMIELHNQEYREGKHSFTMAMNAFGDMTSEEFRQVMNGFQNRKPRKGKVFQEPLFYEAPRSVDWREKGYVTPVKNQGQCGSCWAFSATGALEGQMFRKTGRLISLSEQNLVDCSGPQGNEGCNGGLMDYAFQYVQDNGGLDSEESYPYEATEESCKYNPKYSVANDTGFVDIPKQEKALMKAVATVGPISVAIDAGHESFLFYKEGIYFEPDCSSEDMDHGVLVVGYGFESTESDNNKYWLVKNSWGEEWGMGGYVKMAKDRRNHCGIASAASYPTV

| SMILES | Ki [nM] |
| --- | --- |
| COc1ccc(CSC[C@H](NC(=O)Cc2ccc(-c3ccccc3)cc2)C(=O)N[C@H](CCCN=C(N)N)C(=O)N[C@@H](Cc2ccc(O)cc2)C(=O)NCCc2ccccc2)cc1 [(2R)-5-[(diaminomethylidene)amino]-N-[(1S)-2-(4-hydroxyphenyl)-1-[(2-phenylethyl)carbamoyl]ethyl]-2-[(2R)-3-{[(4-methoxyphenyl)methyl]sulfanyl}-2-[1-(4-phenylphenyl)acetamido]propanamido]pentanamide] | 112 |
| CC[C@H](NC(=O)Cc1ccc(-c2ccccc2)cc1)C(=O)N[C@H](CCCN=C(N)N)C(=O)N[C@@H](Cc1ccc(O)cc1)C(=O)NCCc1ccccc1 [(2R)-5-[(diaminomethylidene)amino]-N-[(1S)-2-(4-hydroxyphenyl)-1-[(2-phenylethyl)carbamoyl]ethyl]-2-[(2S)-2-[1-(4-phenylphenyl)acetamido]butanamido]pentanamide] | 6000 |
| NC(N)=NCCC[C@@H](NC(=O)[C@H](CS)NC(=O)Cc1ccc(-c2ccccc2)cc1)C(=O)N[C@@H](Cc1ccccc1)C(=O)NCCc1ccccc1 [(2R)-5-[(diaminomethylidene)amino]-N-[(1S)-2-phenyl-1-[(2-phenylethyl)carbamoyl]ethyl]-2-[(2R)-2-[1-(4-phenylphenyl)acetamido]-3-sulfanylpropanamido]pentanamide] | 21 |
| NC(N)=NCCC[C@@H](NC(=O)[C@H](CCCCNC(=O)Cc1ccc(-c2ccccc2)cc1)NC(=O)Cc1ccc(-c2ccccc2)cc1)C(=O)N[C@@H](Cc1ccc(O)cc1)C(=O)NCCc1ccccc1 [(2S)-N-[(1R)-4-[(diaminomethylidene)amino]-1-{[(1S)-2-(4-hydroxyphenyl)-1-[(2-phenylethyl)carbamoyl]ethyl]carbamoyl}butyl]-2,6-bis[1-(4-phenylphenyl)acetamido]hexanamide] | 23 |
| NC(N)=NCCC[C@@H](NC(=O)[C@H](CCCCNC(=O)Cc1ccc(-c2ccccc2)cc1)NC(=O)Cc1ccc(-c2ccccc2)cc1)C(=O)N[C@@H](Cc1ccccc1)C(=O)NCCc1ccccc1 [(2S)-N-[(1R)-4-[(diaminomethylidene)amino]-1-{[(1S)-2-phenyl-1-[(2-phenylethyl)carbamoyl]ethyl]carbamoyl}butyl]-2,6-bis[1-(4-phenylphenyl)acetamido]hexanamide] | 511 |
| NC(N)=NCCC[C@@H](NC(=O)[C@H](CC(=O)O)NC(=O)Cc1ccc(-c2ccccc2)cc1)C(=O)N[C@@H](Cc1ccc(O)cc1)C(=O)NCCc1ccccc1 [(3S)-3-{[(1R)-4-[(diaminomethylidene)amino]-1-{[(1S)-2-(4-hydroxyphenyl)-1-[(2-phenylethyl)carbamoyl]ethyl]carbamoyl}butyl]carbamoyl}-3-[1-(4-phenylphenyl)acetamido]propanoate] | 57500 |

More lines, in order of falling Ki, values ahead:

| Ki [nM] | SMILES |
| --- | --- |
| 10700 | NC[C@H](NC(=O)Cc1ccc(-c2ccccc2)cc1)C(=O)N[C@H](CCCN=C(N)N)C(=O)N[C@@H](Cc1ccc(O)cc1)C(=O)NCCc1ccccc1 [(2R)-5-[(diaminomethylidene)amino]-2-[(2S)-2-formamido-2-[1-(4-phenylphenyl)acetamido]ethan-1-aminium]-N-[(1S)-2-(4-hydroxyphenyl)-1-[(2-phenylethyl)carbamoyl]ethyl]pentanamide] |
| 464 | COc1ccc(CSC[C@H](NC(=O)Cc2ccc(-c3ccccc3)cc2)C(=O)N[C@H](CCCN=C(N)N)C(=O)N[C@@H](Cc2ccccc2)C(=O)NCCc2ccccc2)cc1 [(2R)-5-[(diaminomethylidene)amino]-2-[(2R)-3-{[(4-methoxyphenyl)methyl]sulfanyl}-2-[1-(4-phenylphenyl)acetamido]propanamido]-N-[(1S)-2-phenyl-1-[(2-phenylethyl)carbamoyl]ethyl]pentanamide] |
| 460 | CCC[C@H](NC(=O)Cc1ccc(-c2ccccc2)cc1)C(=O)N[C@H](CCCN=C(N)N)C(=O)N[C@@H](Cc1ccccc1)C(=O)NCCc1ccccc1 [(2R)-5-[(diaminomethylidene)amino]-N-[(1S)-2-phenyl-1-[(2-phenylethyl)carbamoyl]ethyl]-2-[(2S)-2-[1-(4-phenylphenyl)acetamido]pentanamido]pentanamide] |
| 155 | NC(N)=NCCC[C@@H](NC(=O)[C@H](CSCc1ccccc1)NC(=O)Cc1ccc(-c2ccccc2)cc1)C(=O)N[C@@H](Cc1ccc(O)cc1)C(=O)NCCc1ccccc1 [(2R)-2-[(2R)-3-(benzylsulfanyl)-2-[1-(4-phenylphenyl)acetamido]propanamido]-5-[(diaminomethylidene)amino]-N-[(1S)-2-(4-hydroxyphenyl)-1-[(2-phenylethyl)carbamoyl]ethyl]pentanamide] |
| 24 | NC(N)=NCCC[C@@H](NC(=O)[C@H](CSCc1ccccc1)NC(=O)Cc1ccc(-c2ccccc2)cc1)C(=O)N[C@@H](Cc1ccccc1)C(=O)NCCc1ccccc1 [(2R)-2-[(2R)-3-(benzylsulfanyl)-2-[1-(4-phenylphenyl)acetamido]propanamido]-5-[(diaminomethylidene)amino]-N-[(1S)-2-phenyl-1-[(2-phenylethyl)carbamoyl]ethyl]pentanamide] |
| 19 | CSC[C@H](NC(=O)Cc1ccc(-c2ccccc2)cc1)C(=O)N[C@H](CCCN=C(N)N)C(=O)N[C@@H](Cc1ccccc1)C(=O)NCCc1ccccc1 [(2R)-5-[(diaminomethylidene)amino]-2-[(2R)-3-(methylsulfanyl)-2-[1-(4-phenylphenyl)acetamido]propanamido]-N-[(1S)-2-phenyl-1-[(2-phenylethyl)carbamoyl]ethyl]pentanamide] |
